Experimental data published in patent US7846434B2, “Materials and methods for improved immunoglycoproteins” (Trubion Pharmaceuticals, Inc., priority 2006, dated 2010).
Several values for one entry are separate records, joined by “and”; a condition that tells them apart may be missing. Equal entries are not always repeated.

Legend:
[1] = system: human CD16 (low affinity polymorphism), FcγRIIIa; test: Simultaneous binding of TRU-016 to CD37 (Daudi cells) and CD16:MuIgGFc fusion
Protocol: TRU-016 produced as described in Example 8 was tested in the following assay, which simultaneously evaluates the ability of the TRU-016 binding domain to bind to a CD37 expressing target cell and the ability of the Fc portion of the TRU-016 SMIP to bind a fusion protein of human CD16 and murine IgG Fc.
The target cell utilized is the Daudi (ATCC CRL-213) cell line. Daudi cells are a human B-lymphoblastoid cell line derived from a Burkitt's lymphoma and express high levels of CD37. The custom soluble CD16:MuIgGFc fusion protein is human CD16 (low affinity polymorphism) linked to a murine IgG Fc.
The appropriate number of Daudi cells (350,000/well times the number of wells) is aliquoted and centrifuged at 250×g for 5 minutes at 15° C. The supernatant is removed. One percent cold paraformaldehyde is prepared by diluting the 4% stock from USB (USB US19943) 1:4 with FACS Buffer. FACS Buffer is prepared by adding 2% FBS (Gibco) to Dulbecco's PBS (Invitrogen) (v/v) and sterile filtering with a 0.22 μm filter. FACS Buffer is stored and used at 4° C. […]
Each sample's bound fluorescence is measured on a BD FACSCalibur flow cytometry system and analyzed with Cell Quest Pro software (Becton Dickinson, ver 5.2). The GeoMean fluorescence intensity for each sample is plotted relative to the TRU-016 concentration. […]

CD16 (Fcγ RIII) = test: Binding of SMIP bound on WIL2-S cells to soluble FcγR-MIg fusion (CD16), flow cytometry
Protocol: The assays were carried out as follows. […] The cells were then incubated with the desired FcγR-MIg fusion in the same diluent at a concentration of 1 μg/ml on ice for 45 minutes.
The complexes (WIL2-S cells/SMIP/FcγR-MIg) were then incubated with PE conjugated AffiniPure F(Ab′)2 Goat Anti-Mouse IgG [Jackson Immunoresearch] (a mouse Fc-specific antibody with minimal cross reactivity with human Fc) at a 1:100 dilution. The cells were analyzed by one-color flow cytometry on a FACsCalibur using CellQuest software (Becton Dickinson).
If TRU-016 supernatants from Example 2 were used in this assay instead of purified TRU-016 protein, the SMIP concentration in the supernatant was quantified by direct staining of WIL2-S cells with diluted supernatant along with a TRU-016 standard. TRU-016 was detected by staining with FITC conjugated F(Ab′)2 Goat Anti-Human (gamma) [Caltag H10101] at a 1:50 dilution.

[2] = system: DG44 CHO cells transfected with TRU-016; test: Effect of castanospermine on DG44 CHO TRU-016 production, 3 L bioreactors; type: cell-based, Chinese hamster; conditions: for TRU-016 Produced as a % of Control: control average 427.7 ug/mL; for Viability at Harvest (%): harvest day 8
Protocol: Prior to growth in bioreactors, DG44 CHO cells transfected with TRU-016 were grown in the absence of castanospermine in vented shake flasks as described in Example 8.
For the bioreactor run, 3 L Applikon bioreactors were used. Growth media for cells was as described in Example 8 except that there was no methotrexate present. Starting culture volume for each bioreactor was 1700 mLs with a starting density of 3.5×10^5 cells/mL. A total of eight bioreactors were run in pairs with CS at 0 μM, 300 μM, 350 μM and 400 μM final concentration (one of the 400 μM CS bioreactors was lost to contamination on day 2 of culture). Castanospermine was added at the initiation of culture in the bioreactors with no further addition during the culture period. Other culture conditions included a temperature set point of 37° C., pH set point of 6.9 and dissolved O2 set point of 50%. Bioreactors were run in a fed-batch mode with L-glutamine and glucose added on an as needed basis. Soy hydrolysate (CHO Feed Bioreactor Supplement—C1615—Sigma) was added at 1% of starting culture volume on days 2, 4 and 6. Bioreactors were sampled daily for viable cell density, percent viable cells, media chemistries and osmolality. All cultures were harvested on day 8 when overall cell viability ranged from 39-50%.

O[C@H]1[C@H](O)[C@@H](O)CN2CC[C@H](O)[C@H]12 [castanospermine]
maximal improvement in TRU-016 glycovariant binding to CD16 ([1]; CHO-K1 produced, CS concentrations of 100 μM or greater): approximately 7 fold | binding to CD16 (GeoMean fluorescence, D-parameter) of DG44 CHO produced TRU-016 ([1]; relative to concentration of CS up to 400 μM, then levels off): dose-dependent binding response | CD16 binding of Protein A-purified TRU-016 (mean fluorescence intensity) (CD16 (Fcγ RIII); CHO cells cultured with 0, 10, 25, 50, 100 or 200 μM castanospermine): dose-dependent increase | CD16 binding of TRU-015 purified protein (geometric mean fluorescence intensity) (CD16 (Fcγ RIII); low affinity allele, CHO cells cultured with 0, 2, 5, 10, 30 or 100 μg/mL castanospermine): dose-dependent increase | TRU-016 Produced as a % of Control ([2]; CS 300 μM, listed as CS): 68.0% and 75.1% | Viability at Harvest (%) ([2]; CS 300 μM, listed as CS): 48.8% and 42.4% | ICA (10^6 cells * days/mL) ([2]; CS 300 μM, listed as CS): 47.5 10^6 cells * days/mL and 46.2 10^6 cells * days/mL | Specific Productivity (pg/cell/day) ([2]; CS 300 μM, listed as CS): 6.12 pg/cell/day and 6.96 pg/cell/day | TRU-016 Produced ([2]; CS 300 μM, listed as CS): 291.0 µg/mL and 321.3 µg/mL | TRU-016 Produced as a % of Control ([2]; CS 350 μM, listed as CS): 73.6% and 74.4% | Viability at Harvest (%) ([2]; CS 350 μM, listed as CS): 39.0% and 41.6% | ICA (10^6 cells * days/mL) ([2]; CS 350 μM, listed as CS): 46.6 10^6 cells * days/mL and 45.5 10^6 cells * days/mL | Specific Productivity (pg/cell/day) ([2]; CS 350 μM, listed as CS): 6.75 pg/cell/day and 7.00 pg/cell/day | TRU-016 Produced ([2]; CS 350 μM, listed as CS): 314.7 µg/mL and 318.1 µg/mL | ICA (10^6 cells * days/mL) ([2]; CS 400 μM): 47.9 10^6 cells * days/mL | Specific Productivity (pg/cell/day) ([2]; CS 400 μM): 6.49 pg/cell/day | TRU-016 Produced ([2]; CS 400 μM): 311.0 µg/mL | TRU-016 Produced as a % of Control ([2]; CS 400 μM): 72.7% | Viability at Harvest (%) ([2]; CS 400 μM): 50.4% | suppression of TRU-016 production relative to non-treated control bioreactors ([2]; CS 300-400 μM): 24.9-32% | cell growth and viability in the bioreactors ([2]; CS 300-400 μM vs no CS): quite comparable
